Where “and” joins values, the source holds several entries; their conditions need not be identical. Equal entries are not always repeated.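 Assay format: 96-well plates, 48-hour exposure. Here, GI50 denotes the concentration required for 50% inhibition of growth. Definition used: TGI = concentration required for complete inhibition of growth.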

This passage reports GI50 and TGI results from PubChem BioAssay (NCI).

Some test systems named below: UACC-62 melanoma; M14 melanoma; KM12 colon; EKVX NSCLC; SK-OV-3 ovarian; OVCAR-4 ovarian; HCC-2998 colon; NCI-H23 lung; LOX IMVI melanoma; RPMI-8226 leukemia.
Experiment in all cases: NCI-60 cell line screen, 48 h

On to `O=[N+]([O-])c1ccccc1N/N=C\c1c[nH]c2ccccc12`, for which the GI50 in the assay on UACC-62 melanoma was 17.1 µM; in the assay on M14 melanoma, 34.7 µM; with KM12 colon, 6.1 µM; in the assay with EKVX NSCLC it was 2.49 µM; in the assay with SK-OV-3 ovarian, 22.4 µM; with OVCAR-4 ovarian it was 17.8 µM. Also, the GI50 with HCC-2998 colon is 10.9 µM; with NCI-H23 lung, 16.8 µM; in the assay on LOX IMVI melanoma, 8.81 µM; with RPMI-8226 leukemia, 47.4 µM. Besides, the TGI with UACC-62 melanoma was more than 100 µM; in the assay with M14 melanoma, more than 100 µM; with KM12 colon, more than 100 µM; with EKVX NSCLC, more than 100 µM; in the assay with SK-OV-3 ovarian, 98 µM; with OVCAR-4 ovarian, more than 100 µM. The TGI in the assay with HCC-2998 colon is more than 100 µM; in the assay with NCI-H23 lung it was more than 100 µM; with LOX IMVI melanoma, more than 47.6 µM; in the assay on RPMI-8226 leukemia it was more than 100 µM.

`COc1ccc(C2CC(c3cc(C)ccc3O)=NC(N)=N2)cc1` (stereo not drawn): the TGI in the assay with UACC-62 melanoma, in the assay with M14 melanoma, with KM12 colon, in the assay on EKVX NSCLC, in the assay on SK-OV-3 ovarian and in the assay with OVCAR-4 ovarian was more than 100 µM throughout. Moreover, the TGI with HCC-2998 colon, with NCI-H23 lung, in the assay with LOX IMVI melanoma and in the assay on RPMI-8226 leukemia was more than 100 µM each time.

Consider `CC(=O)OC1CCCn2c1nc1c2C(=O)C(C)=C(N2CC2)C1=O` (stereo not drawn), for which the TGI was 0.77 µM in the assay with UACC-62 melanoma; 0.337 µM in the assay on M14 melanoma; 1.24 µM in the assay with KM12 colon; 1.9 µM with EKVX NSCLC; 0.965 µM in the assay with SK-OV-3 ovarian; 2.35 µM with OVCAR-4 ovarian. In addition, the TGI in the assay with HCC-2998 colon came to 0.722 µM; in the assay with NCI-H23 lung, 0.373 µM; in the assay on LOX IMVI melanoma, 1.01 µM; with RPMI-8226 leukemia, 14.2 µM.

With `Nc1nc(OCc2cc(Br)cs2)c2[nH]cnc2n1`, the GI50 in the assay on UACC-62 melanoma was 16.3 µM; in the assay on M14 melanoma, 26.7 µM; in the assay with KM12 colon it was 23.2 µM; in the assay with EKVX NSCLC, 24.7 µM; in the assay on SK-OV-3 ovarian, 21.1 µM; in the assay with OVCAR-4 ovarian, 24.9 µM. For the same compound, the GI50 with HCC-2998 colon was 36.2 µM; in the assay on NCI-H23 lung it was 21.8 µM; with LOX IMVI melanoma, 25.3 µM; in the assay with RPMI-8226 leukemia it was 19.1 µM. Further, the TGI was 59.7 µM with UACC-62 melanoma; more than 100 µM in the assay with M14 melanoma; more than 100 µM in the assay with KM12 colon; more than 100 µM with EKVX NSCLC; 57.8 µM with SK-OV-3 ovarian; more than 100 µM in the assay with OVCAR-4 ovarian. Also, the TGI with HCC-2998 colon was more than 100 µM; in the assay with NCI-H23 lung, more than 100 µM; in the assay on LOX IMVI melanoma, 98.1 µM; in the assay on RPMI-8226 leukemia, more than 100 µM.

In the case of `O=[N+]([O-])c1ccc(Sc2ncnc3nc[nH]c23)c2nonc12`, the GI50 is 4.91 µM in the assay on UACC-62 melanoma; 0.94 µM with M14 melanoma; 15.1 µM in the assay on KM12 colon; 18.1 µM in the assay with EKVX NSCLC; 3.75 µM with SK-OV-3 ovarian; 0.811 µM in the assay with OVCAR-4 ovarian. In addition, the GI50 in the assay on HCC-2998 colon is 4.6 µM; in the assay with NCI-H23 lung, 10.3 µM; with LOX IMVI melanoma it was 1.04 µM; in the assay with RPMI-8226 leukemia, 2.92 µM. Further, the TGI in the assay with UACC-62 melanoma is 17.3 µM; in the assay on M14 melanoma, 13.5 µM; in the assay with KM12 colon it was more than 100 µM; in the assay with EKVX NSCLC it was 36.5 µM; in the assay on SK-OV-3 ovarian, 16.2 µM; in the assay with OVCAR-4 ovarian it was 16.9 µM. Moreover, the TGI is 27.6 µM in the assay with HCC-2998 colon, 23.6 µM in the assay with NCI-H23 lung, 16 µM in the assay with LOX IMVI melanoma and 48 µM with RPMI-8226 leukemia.

For the compound `O=C(/C(=C\c1ccc([N+](=O)[O-])cc1)S(=O)Cc1ccc(F)cc1)c1ccc(F)cc1` (stereo not drawn), the GI50 was 1.71 µM with UACC-62 melanoma; 1.79 µM in the assay on M14 melanoma; 2.22 µM with KM12 colon; 1.91 µM with EKVX NSCLC; 11.8 µM in the assay with SK-OV-3 ovarian; 1.84 µM with OVCAR-4 ovarian. Further, the GI50 in the assay on HCC-2998 colon is 1.69 µM; in the assay on NCI-H23 lung it was 1.91 µM; in the assay on LOX IMVI melanoma, 1.54 µM; in the assay on RPMI-8226 leukemia it was 1.3 µM. In addition, the TGI with UACC-62 melanoma was 3.25 µM; in the assay on M14 melanoma, 3.76 µM; in the assay on KM12 colon it was 5.46 µM; in the assay on EKVX NSCLC it was 4.54 µM; in the assay on SK-OV-3 ovarian it was 24.2 µM; with OVCAR-4 ovarian, 3.91 µM. The TGI with HCC-2998 colon came out at 3.22 µM; in the assay on NCI-H23 lung, 4.1 µM; in the assay with LOX IMVI melanoma, 3.05 µM; in the assay with RPMI-8226 leukemia it was 4.28 µM.

As to `O=C(c1ccccc1)c1ccc(Oc2ccc([N+](=O)[O-])cc2[N+](=O)[O-])cc1`, the GI50 is 4.1 µM in the assay on UACC-62 melanoma; 3.09 µM in the assay on M14 melanoma; 2.72 µM in the assay with KM12 colon; 13.2 µM in the assay with EKVX NSCLC; 4.09 µM in the assay on SK-OV-3 ovarian; 4.18 µM in the assay on OVCAR-4 ovarian. The GI50 in the assay with HCC-2998 colon was 11.4 µM; with NCI-H23 lung, 4.33 µM; in the assay on LOX IMVI melanoma, 3.06 µM; in the assay on RPMI-8226 leukemia, 2.56 µM. The TGI was 32.2 µM in the assay with UACC-62 melanoma; 31.6 µM with M14 melanoma; 7.34 µM with KM12 colon; 38.4 µM in the assay with EKVX NSCLC; 29.4 µM in the assay with SK-OV-3 ovarian; 87.4 µM in the assay on OVCAR-4 ovarian. The TGI in the assay on HCC-2998 colon stood at 25.3 µM; in the assay with NCI-H23 lung, 54.9 µM; with LOX IMVI melanoma, 15.1 µM; in the assay with RPMI-8226 leukemia, 7.72 µM.

For the compound `COC(=O)C(C(=O)C(=O)Nc1nc(=S)[nH][nH]1)c1csc(-n2nc(-c3ccccc3)cc2-c2ccccc2)n1` (stereo not drawn), the TGI in the assay with UACC-62 melanoma, with M14 melanoma, in the assay with KM12 colon, with EKVX NSCLC, with SK-OV-3 ovarian and in the assay on OVCAR-4 ovarian was more than 100 µM throughout. Besides, the TGI with HCC-2998 colon, in the assay on NCI-H23 lung, in the assay on LOX IMVI melanoma and with RPMI-8226 leukemia was more than 100 µM each time.

For `CC1(C)CCC2=C(O1)c1ccccc1C(=O)C2=O`, the GI50 is 1.79 µM in the assay with UACC-62 melanoma; 1.69 µM in the assay with M14 melanoma; 1.7 µM in the assay with KM12 colon; 1.27 µM in the assay on OVCAR-4 ovarian; 1.76 µM in the assay on HCC-2998 colon; 1.57 µM in the assay with NCI-H23 lung. For the same compound, the GI50 is 0.33 µM and 0.309 µM in the assay on LOX IMVI melanoma; 1.46 µM in the assay on RPMI-8226 leukemia. The TGI with UACC-62 melanoma was 3.3 µM and 0.957 µM; in the assay on M14 melanoma it was 3.31 µM and 0.801 µM; with KM12 colon, 3.38 µM and 2.13 µM; in the assay with EKVX NSCLC, 3.78 µM and 3.59 µM; in the assay on SK-OV-3 ovarian, 3.94 µM; in the assay with OVCAR-4 ovarian, 2.53 µM and 5.78 µM. Besides, the TGI with HCC-2998 colon is 3.25 µM; with NCI-H23 lung, 3.91 µM and 1.09 µM; in the assay on LOX IMVI melanoma it was 1.31 µM and 0.934 µM; in the assay with RPMI-8226 leukemia, 5.76 µM and 1.48 µM.
